Where two headings read alike, the source gives them in different places.
Experiments:
Test in all cases: biochemical
Design in all cases: Eurofins KinaseProfiler full panel at Km ATP, residual kinase activity (%) relative to DMSO
[1] = target: T1, GSK3α(h) (Homo sapiens, UniProt P49840)
T1 construct: gene GSK3A
Outline: (§1)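 Two 10 µM single-concentration screens were run: a competition-binding screen, in which DNA-tagged kinase bound to immobilized ligands was quantified by qPCR, and a radiometric activity panel at Km ATP. Each is expressed as residual kinase activity (%).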

[2] = target: T2, ARK5(h) (Homo sapiens, UniProt O60285)
T2 construct: gene NUAK1
T2 sequence (O60285 1-661): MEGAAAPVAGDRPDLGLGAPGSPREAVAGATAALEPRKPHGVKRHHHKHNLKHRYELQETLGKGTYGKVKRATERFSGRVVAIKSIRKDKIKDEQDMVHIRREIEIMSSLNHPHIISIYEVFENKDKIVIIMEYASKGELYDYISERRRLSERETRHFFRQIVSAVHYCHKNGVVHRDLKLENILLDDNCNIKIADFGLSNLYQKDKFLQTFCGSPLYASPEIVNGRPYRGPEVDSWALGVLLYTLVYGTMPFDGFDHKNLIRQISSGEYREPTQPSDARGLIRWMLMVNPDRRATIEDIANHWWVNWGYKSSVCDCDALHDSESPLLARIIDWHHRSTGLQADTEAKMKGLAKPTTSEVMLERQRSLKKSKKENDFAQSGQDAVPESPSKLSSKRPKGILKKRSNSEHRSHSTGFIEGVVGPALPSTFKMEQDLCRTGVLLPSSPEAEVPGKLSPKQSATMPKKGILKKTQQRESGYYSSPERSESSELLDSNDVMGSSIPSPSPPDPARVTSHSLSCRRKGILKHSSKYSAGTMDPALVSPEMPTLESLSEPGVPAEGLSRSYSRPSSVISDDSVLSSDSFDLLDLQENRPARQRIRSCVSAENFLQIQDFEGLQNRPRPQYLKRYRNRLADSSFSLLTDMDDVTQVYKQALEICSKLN
Outline: as §1

[3] = target: CDK18/cyclinY(h) (Homo sapiens, UniProt Q07002)
Outline: as §1

[4] = target: T3, CK2α2(h) (Homo sapiens, UniProt P19784)
T3 construct: gene CSNK2A2
Outline: as §1

[5] = target: RIPK2(h) (Homo sapiens, UniProt O43353)
Outline: as §1

[6] = target: EGFR(T790M,L858R)(h) (Homo sapiens, UniProt P00533, L858R/T790M)
Outline: as §1

[7] = target: T4, PI3 Kinase (p110a(E542K)/p85a)(h) (Homo sapiens, UniProt P42336, E542K)
T4 construct: gene PIK3CA
Outline: as §1

[8] = target: T5, HPK1(h) (Homo sapiens, UniProt Q92918)
T5 construct: gene MAP4K1
Outline: as §1

[9] = target: TTBK1(h) (Homo sapiens, UniProt Q5TCY1)
Outline: as §1

[10] = target: T6, TGFBR1(h) (Homo sapiens, UniProt P36897)
T6 sequence (P36897 1-503): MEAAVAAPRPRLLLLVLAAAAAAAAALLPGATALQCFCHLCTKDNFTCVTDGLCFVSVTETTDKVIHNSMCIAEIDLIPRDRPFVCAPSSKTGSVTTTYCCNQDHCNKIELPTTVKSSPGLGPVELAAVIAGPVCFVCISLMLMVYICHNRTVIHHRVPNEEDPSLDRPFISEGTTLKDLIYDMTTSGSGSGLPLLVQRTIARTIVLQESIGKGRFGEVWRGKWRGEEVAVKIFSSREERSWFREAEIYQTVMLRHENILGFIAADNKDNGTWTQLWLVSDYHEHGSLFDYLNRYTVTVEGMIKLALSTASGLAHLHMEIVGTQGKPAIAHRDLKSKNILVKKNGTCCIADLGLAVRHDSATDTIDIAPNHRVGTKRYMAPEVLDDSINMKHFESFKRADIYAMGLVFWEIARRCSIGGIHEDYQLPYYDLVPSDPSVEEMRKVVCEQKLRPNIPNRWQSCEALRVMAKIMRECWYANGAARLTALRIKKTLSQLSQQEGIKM
Outline: as §1

[11] = read-out: Residual activity (%) 5at
[12] = read-out: Residual activity (%) 5as
[13] = read-out: Residual activity (%) 5ay
[14] = read-out: Residual activity (%) Spautin-1 5aa

T4 sequence (P42336 whole entry E542K): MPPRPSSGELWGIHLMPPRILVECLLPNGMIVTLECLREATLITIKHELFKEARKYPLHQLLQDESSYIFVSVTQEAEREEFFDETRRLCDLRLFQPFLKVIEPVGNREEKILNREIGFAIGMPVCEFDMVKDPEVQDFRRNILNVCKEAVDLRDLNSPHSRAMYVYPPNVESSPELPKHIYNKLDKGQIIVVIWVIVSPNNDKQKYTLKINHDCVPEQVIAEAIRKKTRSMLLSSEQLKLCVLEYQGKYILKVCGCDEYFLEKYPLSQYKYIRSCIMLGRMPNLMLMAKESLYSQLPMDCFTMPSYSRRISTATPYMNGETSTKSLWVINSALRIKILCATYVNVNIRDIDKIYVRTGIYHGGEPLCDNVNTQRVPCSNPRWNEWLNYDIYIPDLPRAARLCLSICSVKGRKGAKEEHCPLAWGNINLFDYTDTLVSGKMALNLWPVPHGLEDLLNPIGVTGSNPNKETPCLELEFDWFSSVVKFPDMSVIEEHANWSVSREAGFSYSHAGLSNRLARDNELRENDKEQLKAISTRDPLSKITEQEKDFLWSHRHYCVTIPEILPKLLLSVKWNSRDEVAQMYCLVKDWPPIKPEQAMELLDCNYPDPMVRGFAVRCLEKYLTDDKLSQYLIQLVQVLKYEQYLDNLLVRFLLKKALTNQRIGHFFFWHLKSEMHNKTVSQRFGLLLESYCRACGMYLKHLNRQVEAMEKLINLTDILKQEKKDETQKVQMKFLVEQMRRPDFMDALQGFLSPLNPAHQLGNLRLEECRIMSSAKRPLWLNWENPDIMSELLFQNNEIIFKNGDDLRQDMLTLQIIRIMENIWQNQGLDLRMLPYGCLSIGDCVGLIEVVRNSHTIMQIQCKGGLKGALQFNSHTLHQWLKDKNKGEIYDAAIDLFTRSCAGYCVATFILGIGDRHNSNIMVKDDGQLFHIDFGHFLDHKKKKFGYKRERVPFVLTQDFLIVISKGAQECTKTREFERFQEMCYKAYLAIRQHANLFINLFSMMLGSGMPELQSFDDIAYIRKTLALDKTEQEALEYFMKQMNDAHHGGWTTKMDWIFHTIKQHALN
T4 sequence (P27986 whole entry partner): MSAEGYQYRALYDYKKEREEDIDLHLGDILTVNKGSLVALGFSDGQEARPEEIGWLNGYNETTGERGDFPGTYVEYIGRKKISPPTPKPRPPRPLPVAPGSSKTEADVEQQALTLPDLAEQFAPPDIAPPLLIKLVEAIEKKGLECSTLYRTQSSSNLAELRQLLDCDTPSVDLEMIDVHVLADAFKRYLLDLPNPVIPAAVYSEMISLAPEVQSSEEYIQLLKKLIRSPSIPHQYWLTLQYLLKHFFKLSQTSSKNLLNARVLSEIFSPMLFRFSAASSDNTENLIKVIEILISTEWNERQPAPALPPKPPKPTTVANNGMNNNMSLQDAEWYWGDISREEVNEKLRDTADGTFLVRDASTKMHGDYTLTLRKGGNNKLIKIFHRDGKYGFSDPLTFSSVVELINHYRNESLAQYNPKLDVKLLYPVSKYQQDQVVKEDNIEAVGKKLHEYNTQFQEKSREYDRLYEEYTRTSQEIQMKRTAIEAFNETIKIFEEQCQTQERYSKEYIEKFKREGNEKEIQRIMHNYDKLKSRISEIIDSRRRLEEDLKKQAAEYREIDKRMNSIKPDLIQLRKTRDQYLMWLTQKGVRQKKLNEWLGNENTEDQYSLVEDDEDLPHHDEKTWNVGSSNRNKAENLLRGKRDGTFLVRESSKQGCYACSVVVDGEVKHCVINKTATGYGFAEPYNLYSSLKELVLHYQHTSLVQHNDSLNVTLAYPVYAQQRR
TTBK1(h), sequence (Q5TCY1 whole entry): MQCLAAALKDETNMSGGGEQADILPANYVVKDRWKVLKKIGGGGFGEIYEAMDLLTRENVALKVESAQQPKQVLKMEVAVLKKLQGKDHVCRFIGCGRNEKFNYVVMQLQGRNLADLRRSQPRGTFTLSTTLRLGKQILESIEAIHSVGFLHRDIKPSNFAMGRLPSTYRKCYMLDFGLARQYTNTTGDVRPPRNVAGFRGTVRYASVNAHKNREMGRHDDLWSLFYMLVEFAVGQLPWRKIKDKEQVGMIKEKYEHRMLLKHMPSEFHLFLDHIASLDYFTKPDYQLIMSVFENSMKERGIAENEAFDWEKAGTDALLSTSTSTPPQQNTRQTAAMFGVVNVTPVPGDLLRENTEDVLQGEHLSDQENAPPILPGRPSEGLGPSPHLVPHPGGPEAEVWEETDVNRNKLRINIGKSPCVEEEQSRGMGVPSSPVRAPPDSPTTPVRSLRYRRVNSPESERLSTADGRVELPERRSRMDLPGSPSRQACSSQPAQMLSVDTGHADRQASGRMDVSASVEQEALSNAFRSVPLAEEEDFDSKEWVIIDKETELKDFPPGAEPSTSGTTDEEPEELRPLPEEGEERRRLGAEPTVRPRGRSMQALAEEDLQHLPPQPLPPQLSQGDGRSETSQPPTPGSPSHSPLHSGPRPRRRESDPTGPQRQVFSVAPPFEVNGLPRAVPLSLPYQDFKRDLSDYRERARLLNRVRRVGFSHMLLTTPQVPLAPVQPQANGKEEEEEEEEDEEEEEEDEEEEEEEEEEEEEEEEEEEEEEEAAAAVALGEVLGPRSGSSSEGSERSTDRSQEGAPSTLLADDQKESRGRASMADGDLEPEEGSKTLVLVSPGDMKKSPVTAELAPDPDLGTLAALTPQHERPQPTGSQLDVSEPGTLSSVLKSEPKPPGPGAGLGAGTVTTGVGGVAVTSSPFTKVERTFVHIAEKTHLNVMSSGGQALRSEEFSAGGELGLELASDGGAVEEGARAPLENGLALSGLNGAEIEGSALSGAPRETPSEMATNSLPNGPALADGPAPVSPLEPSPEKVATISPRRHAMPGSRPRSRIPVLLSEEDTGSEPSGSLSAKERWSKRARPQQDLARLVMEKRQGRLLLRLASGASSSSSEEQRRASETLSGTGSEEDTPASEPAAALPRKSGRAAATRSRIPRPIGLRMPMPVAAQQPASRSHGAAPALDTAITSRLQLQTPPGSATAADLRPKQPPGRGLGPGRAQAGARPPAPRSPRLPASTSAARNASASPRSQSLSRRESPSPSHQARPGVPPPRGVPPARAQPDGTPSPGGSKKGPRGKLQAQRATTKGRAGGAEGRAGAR
EGFR(T790M,L858R)(h), sequence (P00533 whole entry T790M/L858R): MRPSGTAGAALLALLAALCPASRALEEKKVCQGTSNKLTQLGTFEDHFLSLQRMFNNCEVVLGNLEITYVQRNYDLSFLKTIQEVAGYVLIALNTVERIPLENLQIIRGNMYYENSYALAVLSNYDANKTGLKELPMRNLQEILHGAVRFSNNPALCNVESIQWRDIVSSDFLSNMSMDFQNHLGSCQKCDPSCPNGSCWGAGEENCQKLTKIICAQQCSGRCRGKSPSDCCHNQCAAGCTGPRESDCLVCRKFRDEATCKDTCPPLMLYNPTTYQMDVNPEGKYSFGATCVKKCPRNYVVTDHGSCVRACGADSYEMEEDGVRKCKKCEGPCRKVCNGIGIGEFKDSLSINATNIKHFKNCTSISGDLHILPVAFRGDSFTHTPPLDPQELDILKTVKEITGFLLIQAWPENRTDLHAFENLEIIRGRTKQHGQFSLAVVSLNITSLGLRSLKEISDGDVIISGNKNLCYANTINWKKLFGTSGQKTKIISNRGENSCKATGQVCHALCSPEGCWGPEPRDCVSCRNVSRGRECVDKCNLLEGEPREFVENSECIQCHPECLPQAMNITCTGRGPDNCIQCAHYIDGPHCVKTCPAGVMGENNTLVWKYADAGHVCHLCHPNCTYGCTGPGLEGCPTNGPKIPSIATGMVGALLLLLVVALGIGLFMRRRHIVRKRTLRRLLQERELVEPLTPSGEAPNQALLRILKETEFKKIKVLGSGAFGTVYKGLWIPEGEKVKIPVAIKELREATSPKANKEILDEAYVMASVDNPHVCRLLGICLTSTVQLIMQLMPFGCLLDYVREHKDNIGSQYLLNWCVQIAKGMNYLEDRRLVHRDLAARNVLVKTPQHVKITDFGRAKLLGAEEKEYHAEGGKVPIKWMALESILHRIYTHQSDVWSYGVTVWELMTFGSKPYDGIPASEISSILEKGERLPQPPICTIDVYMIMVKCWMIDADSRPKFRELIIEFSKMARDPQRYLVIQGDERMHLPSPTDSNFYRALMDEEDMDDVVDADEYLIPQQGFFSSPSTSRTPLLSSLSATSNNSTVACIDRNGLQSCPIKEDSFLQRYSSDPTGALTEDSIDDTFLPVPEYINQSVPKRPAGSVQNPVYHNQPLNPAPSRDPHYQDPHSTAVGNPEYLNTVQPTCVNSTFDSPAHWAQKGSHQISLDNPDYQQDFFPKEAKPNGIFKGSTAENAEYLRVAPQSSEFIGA
RIPK2(h), sequence (O43353 whole entry): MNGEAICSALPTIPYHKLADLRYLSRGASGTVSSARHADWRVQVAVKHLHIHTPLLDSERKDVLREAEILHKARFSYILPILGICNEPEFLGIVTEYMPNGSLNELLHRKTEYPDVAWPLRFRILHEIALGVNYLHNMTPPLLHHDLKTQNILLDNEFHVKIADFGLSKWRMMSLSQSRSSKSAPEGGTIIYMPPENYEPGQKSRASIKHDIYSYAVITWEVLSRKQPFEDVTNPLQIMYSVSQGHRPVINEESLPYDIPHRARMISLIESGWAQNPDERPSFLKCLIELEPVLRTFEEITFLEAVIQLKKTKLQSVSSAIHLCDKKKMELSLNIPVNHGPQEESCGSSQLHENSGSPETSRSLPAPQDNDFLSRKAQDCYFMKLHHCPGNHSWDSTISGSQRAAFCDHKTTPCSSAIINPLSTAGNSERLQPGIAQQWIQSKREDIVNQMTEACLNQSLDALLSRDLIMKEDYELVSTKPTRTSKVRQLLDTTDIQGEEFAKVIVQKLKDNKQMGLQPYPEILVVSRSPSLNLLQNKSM

Structure (SMILES): Fc1ccc2ncnc(NCCc3ccc(Cl)cc3)c2c1 [5at, N-[2-(4-Chlorophenyl)Ethyl]-6-Fluoro-4-Quinazolinamine]
- remaining activity at 10 µM [1, 11]: 102%
- remaining activity at 10 µM [2, 11]: 105%
- remaining activity at 10 µM [3, 11]: 116%
- remaining activity at 10 µM [4, 11]: 86%
- remaining activity at 10 µM [5, 11]: 86%
- remaining activity at 10 µM [6, 11]: 85%
- remaining activity at 10 µM [7, 11]: 93%
- remaining activity at 10 µM [8, 11]: 96%
- remaining activity at 10 µM [9, 11]: 114%
- remaining activity at 10 µM [10, 11]: 86%

Structure (SMILES): Fc1ccc(CCNc2ncnc3ccc(F)cc23)cc1 [5as, 6-Fluoro-N-[2-(4-Fluorophenyl)Ethyl]-4-Quinazolinamine]
- remaining activity at 10 µM [1, 12]: 101%
- remaining activity at 10 µM [2, 12]: 101%
- remaining activity at 10 µM [3, 12]: 102%
- remaining activity at 10 µM [4, 12]: 95%
- remaining activity at 10 µM [5, 12]: 86%
- remaining activity at 10 µM [6, 12]: 93%
- remaining activity at 10 µM [7, 12]: 91%
- remaining activity at 10 µM [8, 12]: 98%
- remaining activity at 10 µM [9, 12]: 104%
- remaining activity at 10 µM [10, 12]: 97%

Structure (SMILES): COc1ccc2ncnc(Nc3cccc(F)c3)c2c1 [5ay, N-(3-Fluorophenyl)-6-Methoxy-4-Quinazolinamine]
- remaining activity at 10 µM [1, 13]: 69%
- remaining activity at 10 µM [2, 13]: 93%
- remaining activity at 10 µM [3, 13]: 86%
- remaining activity at 10 µM [4, 13]: 83%
- remaining activity at 10 µM [5, 13]: 22%
- remaining activity at 10 µM [6, 13]: 69%
- remaining activity at 10 µM [7, 13]: 88%
- remaining activity at 10 µM [8, 13]: 92%
- remaining activity at 10 µM [9, 13]: 112%
- remaining activity at 10 µM [10, 13]: 94%

Structure (SMILES): Fc1ccc(CNc2ncnc3ccc(F)cc23)cc1 [5aa, 6-Fluoro-N-(4-fluorobenzyl)-4-Quinazolinamine]
- remaining activity at 10 µM [1, 14]: 93%
- remaining activity at 10 µM [2, 14]: 99%
- remaining activity at 10 µM [3, 14]: 87%
- remaining activity at 10 µM [4, 14]: 101%
- remaining activity at 10 µM [5, 14]: 82%
- remaining activity at 10 µM [6, 14]: 96%
- remaining activity at 10 µM [7, 14]: 94%
- remaining activity at 10 µM [8, 14]: 92%
- remaining activity at 10 µM [9, 14]: 119%
- remaining activity at 10 µM [10, 14]: 87%
